The target in this test is T1, APOL1 (Homo sapiens, UniProt O14791).
T1 sequence (O14791 1-398 S342G/I384M): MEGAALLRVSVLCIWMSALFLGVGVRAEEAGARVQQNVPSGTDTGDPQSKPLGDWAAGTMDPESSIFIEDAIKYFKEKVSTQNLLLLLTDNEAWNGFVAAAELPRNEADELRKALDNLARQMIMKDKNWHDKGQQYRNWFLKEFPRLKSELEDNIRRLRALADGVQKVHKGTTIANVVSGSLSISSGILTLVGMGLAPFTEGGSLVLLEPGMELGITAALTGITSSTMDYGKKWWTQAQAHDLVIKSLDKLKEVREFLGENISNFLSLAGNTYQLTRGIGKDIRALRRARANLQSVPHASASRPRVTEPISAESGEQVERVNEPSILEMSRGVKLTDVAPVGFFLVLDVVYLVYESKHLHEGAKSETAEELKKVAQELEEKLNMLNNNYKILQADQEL
In words: MultiTox-Fluor Multiplex Cytotoxicity Assay in tet-inducible APOL1 T-REx-HEK293 cells (cell rescue, ratio of dead to live cells). In kind it is cell-based. The following applies: tet-inducible transgenic APOL1 T-REx-HEK293 cell lines, 50 ng/mL tet, 24 hours; read-out: IP50 (i.e., IC50 for cell proliferation). The method, boiled down:
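T-REx-HEK293 cells with tet-inducible APOL1 were treated with compound (10 μM top, 10-point 3-fold dilution, duplicate) plus 50 ng/mL tetracycline for 24 h at 37° C, in DMEM with 2% tet-free FBS. MultiTox-Fluor protease signals gave a dead/live ratio, normalized to no tet (100% viability) and tet alone (0%).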
Turning to `C[C@H]1C[C@@]2(CCN1Cc1cnn(CCS(C)(=O)=O)c1)OCCc1cc(C3CCC3)sc12` [Compound 1033, (2′S,7R)-2-cyclobutyl-2′-methyl-1′-[[1-(2-methylsulfonylethyl)pyrazol-4-yl]methyl]spiro[4,5-dihydrothieno[2,3-c]pyran-7,4′-piperidine]], the IC50 was less than 100 nM. The value for `C[C@H]1C[C@@]2(CCN1Cc1cnn(CCS(C)(=O)=O)c1)OCCc1cc(C3CC3)sc12` [Compound 1034, (2′S, 7R)-2-cyclopropyl-2′-methyl-1′-[[1-(2-methylsulfonylethyl)pyrazol-4-yl]methyl]spiro[4,5-dihydrothieno[2,3-c]pyran-7,4′-piperidine]] was less than 100 nM; that for `C[C@H]1C[C@@]2(CCN1Cc1cnn(CCS(C)(=O)=O)c1)OCCc1cc(C#N)sc12` [Compound 1035, (2′S,7R)-2′-methyl-1′-[[1-(2-methylsulfonylethyl)pyrazol-4-yl]methyl]spiro[4,5-dihydrothieno[2,3-c]pyran-7,4′-piperidine]-2-carbonitrile] was less than 100 nM; that for `CCc1cc2c(s1)[C@]1(CCN(Cc3cn(CCS(C)(=O)=O)nn3)[C@@H](C)C1)OCC2` [Compound 1036, (2′S, 7R)-2-ethyl-2′-methyl-1′-[[1-(2-methylsulfonylethyl)triazol-4-yl]methyl]spiro[4,5-dihydrothieno[2,3-c]pyran-7,4′-piperidine]] was less than 100 nM. The value for `CCc1cc2c(s1)[C@]1(CCN(Cc3cnn(CCS(C)(=O)=O)c3)[C@@H](C)C1)OCC2O` (stereo partly drawn) [Compound 1037, (2′S, 7R)-2-ethyl-2′-methyl-1′-[[1-(2-methylsulfonylethyl)pyrazol-4-yl]methyl]spiro[4,5-dihydrothieno[2,3-c]pyran-7,4′-piperidine]-4-ol] was less than 100 nM; that for `CCc1cc2c(s1)[C@]1(CCN(Cc3cn(CCS(C)(=O)=O)nn3)[C@@H](C)C1)OCC2O` (stereo partly drawn) [Compound 1038, (2′S,7R)-2-ethyl-2′-methyl-1′-[[1-(2-methylsulfonylethyl)triazol-4-yl]methyl]spiro[4,5-dihydrothieno[2,3-c]pyran-7,4′-piperidine]-4-ol] was less than 100 nM; that for `CCc1cc2c(s1)CCO[C@@]21CCN(C[C@H]2C[C@@H](NC(=O)OC(C)(C)C)C2)[C@@H](C)C1` [Compound 1039] was less than 100 nM.

On to `CS(=O)(=O)CCn1cc(CN2CCC3(CC2C2CC2)OCCc2cc(Cl)sc23)cn1` (stereo not drawn) [Compound 1040, 2-chloro-2′-cyclopropyl-1′-[[1-(2-methylsulfonylethyl)pyrazol-4-yl]methyl]spiro[4,5-dihydrothieno[2,3-c]pyran-7,4′-piperidine]], for which the IC50 was less than 100 nM. Turning to `CCc1cc2c(s1)CCOC21CCN(Cc2cnn(C)c2)C(CC)C1` (stereo not drawn) [Compound 1041, 2,2′-diethyl-1-((1-methyl-1H-pyrazol-4-yl)methyl)-6′,7′-dihydrospiro[piperidine-4,4′-thieno [3,2-c]pyran]], the IC50 is less than 100 nM.

As for `CCc1cc2c(s1)CCOC21CCN(Cc2cnn(C)c2)C2(CCC2)C1` (stereo not drawn) [Compound 1042, 2″-ethyl-1′-((1-methyl-1H-pyrazol-4-yl)methyl)-6″,7″-dihydrodispiro[cyclobutane-1,2′-piperidine-4′,4″-thieno[3,2-c]pyran]], the IC50 fell in the range of 100 to 500 nM. The same measure for `CCc1cc2c(s1)CCOC21CCN(Cc2ccc(C(=O)N[C@H]3CC[C@H](O)CC3)nc2)CC1` [Compound 1043, 5-((2′-ethyl-6′,7′-dihydrospiro[piperidine-4,4′-thieno[3,2-c]pyran]-1-yl)methyl)-N-((1r,4r)-4-hydroxycyclohexyl)picolinamide]: less than 100 nM.

For `CCc1cc2c(s1)CCOC21CCN(Cc2ccc(C(=O)Nc3c[nH]c4ccccc34)nc2)CC1` [Compound 1044], the IC50 was less than 100 nM. The value for `CCc1cc2c(s1)CCOC21CCN(Cc2ccc(C(=O)NC(C)(CC)CO)nc2)CC1` (stereo not drawn) [Compound 1045] was less than 100 nM; that for `CCc1cc2c(s1)CCOC21CCN(Cc2ccc(C(=O)N[C@H](C)CO)nc2)CC1` [Compound 1046] was less than 100 nM. The value for `CCc1cc2c(s1)CCOC21CCN(Cc2ccc(C(=O)NC(C)(C)CO)nc2)CC1` [Compound 1047] was less than 100 nM; that for `CCc1cc2c(s1)CCOC21CCN(Cc2ccc(C(=O)Nc3cccc4cc[nH]c34)nc2)CC1` [Compound 1048] was less than 100 nM; that for `CCc1cc2c(s1)CCOC21CCN(Cc2ccc(C(=O)NCCC(=O)N3CCCC3)nc2)CC1` [Compound 1049] was less than 100 nM. Turning to `CCc1cc2c(s1)CCOC21CCN(Cc2ccc(C(=O)N3CC(CO)C3)nc2)CC1` [Compound 1050], the IC50 was less than 100 nM. The same measure for `CCc1cc2c(s1)CCOC21CCN(Cc2ccc(C(=O)Nc3ccn(C)n3)nc2)CC1` [Compound 1051]: less than 100 nM; for `CCc1cc2c(s1)CCOC21CCN(Cc2ccc(C(=O)Nc3ccnn3C)nc2)CC1` [Compound 1052]: less than 100 nM; for `CCc1cc2c(s1)CCOC21CCN(Cc2ccc(C(=O)N[C@H](CC)CO)nc2)CC1` [Compound 1053]: less than 100 nM.

For `CCc1cc2c(s1)CCOC21CCN(Cc2ccc(C(=O)NC(C)CCO)nc2)CC1` (stereo not drawn) [Compound 1054], the IC50 is less than 100 nM. The same measure for `CCc1cc2c(s1)CCOC21CCN(Cc2ccc(C(=O)NC3CC(O)C3)nc2)CC1` (stereo not drawn) [Compound 1055]: less than 100 nM; for `CCc1cc2c(s1)CCOC21CCN(Cc2ccc(C(=O)NCCO)nc2)CC1` [Compound 1056]: 100 to 500 nM; for `CCc1cc2c(s1)CCOC21CCN(Cc2ccc(C(=O)NC(CO)CO)nc2)CC1` [Compound 1057]: 100 to 500 nM.

For `CCc1cc2c(s1)CCOC21CCN(Cc2ccc(C(=O)NC3CCCC3=O)nc2)CC1` (stereo not drawn) [Compound 1058], the IC50 fell in the range of 100 to 500 nM. Regarding `CCc1cc2c(s1)CCOC21CCN(Cc2ccc(C(=O)NCc3ccn(C)n3)nc2)CC1` [Compound 1059], the IC50 fell in the range of 100 to 500 nM. As to `CCc1cc2c(s1)CCOC21CCN(Cc2ccc(C(=O)NCC3CCC(O)C3)nc2)CC1` (stereo not drawn) [Compound 1060], the IC50 was in the range of 100 to 500 nM. The value for `CCc1cc2c(s1)CCOC21CCN(Cc2ccc(C(=O)NCC(C)O)nc2)CC1` (stereo not drawn) [Compound 1061] was 100 to 500 nM; that for `CCc1cc2c(s1)CCOC21CCN(Cc2ccc(C(=O)NCC3(C)CCOC3)nc2)CC1` (stereo not drawn) [Compound 1062] was 100 to 500 nM; that for `CCc1cc2c(s1)CCOC21CCN(Cc2ccc(C(=O)NCCOCCO)nc2)CC1` [Compound 1063] was 100 to 500 nM. The same measure for `CCc1cc2c(s1)CCOC21CCN(Cc2ccc(C(=O)NC3CC(C)(O)C3)nc2)CC1` (stereo not drawn) [Compound 1064]: 100 to 500 nM. The value for `CCc1cc2c(s1)CCOC21CCN(Cc2ccc(C(=O)N(C)[C@H]3CC[C@H](O)CC3)nc2)CC1` [Compound 1065] was 500 to 1000 nM; that for `CCc1cc2c(s1)CCOC21CCN(Cc2ccc(N3C[C@@H](O)[C@H](O)C3)nc2)CC1` [Compound 1066, (3R,4R)-1-(5-((2′-ethyl-6′,7′-dihydrospiro[piperidine-4,4′-thieno[3,2-c]pyran]-1-yl)methyl)pyridin-2-yl)pyrrolidine-3,4-diol] was less than 100 nM; that for `CCc1cc2c(s1)CCOC21CCN(Cc2ccc(N[C@H]3CC[C@H](O)CC3)nc2)CC1` [Compound 1067] was less than 100 nM.

Consider `CCc1cc2c(s1)CCOC21CCN(Cc2ccc(NCC3CCOCC3)nc2)CC1` [Compound 1068], for which the IC50 is less than 100 nM.

In the case of `CCc1cc2c(s1)CCOC21CCN(Cc2ccc(NS(=O)(=O)C3CC3)nc2)CC1` [Compound 1069], the IC50 lay within 100 to 500 nM. The same measure for `CCc1cc2c(s1)CCOC21CCN(Cc2ccc(NC3(CO)CC3)nc2)CC1` [Compound 1070]: 100 to 500 nM.

As to `CCc1cc2c(s1)CCOC21CCN(Cc2ccc(N(C)S(C)(=O)=O)nc2)CC1` [Compound 1071], the IC50 lay within 100 to 500 nM.

For the compound `CCc1cc2c(s1)CCOC21CCN(Cc2ccc(NC3(COC)CC3)nc2)CC1` [Compound 1072], the IC50 lay within 100 to 500 nM. For the compound `CCc1cc2c(s1)CCOC21CCN(Cc2cnc(N[C@H]3CC[C@H](O)CC3)nc2)CC1` [Compound 1073, (1r,4r)-4-((5-((2′-ethyl-6′,7′-dihydrospiro[piperidine-4,4′-thieno[3,2-c]pyran]-1-yl)methyl)pyrimidin-2-yl)amino)cyclohexan-1-ol], the IC50 is less than 100 nM. With `CCc1cc2c(s1)CCOC21CCN(Cc2cnc(Nc3cccnc3)nc2)CC1` [Compound 1074], the IC50 is less than 100 nM. Regarding `CCc1cc2c(s1)CCOC21CCN(Cc2cnc(NCc3cc[nH]c(=O)c3)nc2)CC1` [Compound 1075], the IC50 was 100 to 500 nM.

With `CCc1cc2c(s1)CCOC21CCN(Cc2cnc(NC3CC3OC)nc2)CC1` (stereo not drawn) [Compound 1076], the IC50 fell in the range of 100 to 500 nM. With `CCc1cc2c(s1)CCOC21CCN(Cc2cnc(N[C@H](CC)CO)nc2)CC1` [Compound 1077], the IC50 lay within 100 to 500 nM. The same measure for `CCc1cc2c(s1)CCOC21CCN(Cc2cnc(NCCn3cccn3)nc2)CC1` [Compound 1078]: 100 to 500 nM; for `CCc1cc2c(s1)CCOC21CCN(Cc2cn(CC(O)C(C)(C)O)nn2)CC1` (stereo not drawn) [Compound 1079, 1-(4-((2′-ethyl-6′,7′-dihydrospiro[piperidine-4,4′-thieno[3,2-c]pyran]-1-yl)methyl)-1H-1,2,3-triazol-1-yl)-3-methylbutane-2,3-diol]: 100 to 500 nM. On to `CCc1cc2c(s1)CCOC21CCN(Cc2cn(CCS(N)(=O)=O)nn2)CC1` [Compound 1080], for which the IC50 fell in the range of 100 to 500 nM.

(Values after patent US20250171459A1, “2-METHYL-4',5'-DIHYDROSPIRO[PIPERIDINE-4,7'-THIENO[2,3-C]PYRAN] DERIVATIVES AS INHIBITORS OF APOL1 AND METHODS OF USING SAME” (Vertex Pharmaceuticals Incorporated, priority 2022, published 2025).)
